# From patent US6127136A, “Detection of dioxin-like compounds by detection of transformed Ah receptor/ARNT complex” (Paracelsian, Inc., priority 1996, dated 2000)
# Several values for one entry are separate records, joined by “and”; a condition that tells them apart may be missing. Equal entries are not always repeated.
# Assays:
# [1] = test system: transformed DRE/AhR/ARNT complex; assay: size exclusion column of DRE/AhR/ARNT complex followed by SDS-PAGE western blot; type: biochemical, guinea pig (hepatic cytosol)
# Description: Size-exclusion column: 10 mL bed volume sephacryl S-100-HR (Sigma, St. Louis, Mo.) packed in Econopac column (Biorad cat. no. 732-1010), equilibrated in HEDG plus 200 mM NaCl. Column was hooked up to a peristaltic pump. Flow rate was 0.5 mL/min. The size exclusion column outlet was attached to a HPLC fluorimeter set at excitation 494 nm and emmission 520 nm to detect fluorescein. DRE used was F-ERD oligo (SEQ. ID. #4) and DRE-D oligo (SEQ. ID. #1) hybridized as described above. Cytosol was prepared as described above. Cytosol was dosed with 1:1000 v/v DMSO (-) or 1:1000 v/v 10 uM 2,3,7,8-tetrachlorodibenzo-p-dioxin in DMSO (+).
# Samples were incubated for 2 hours at room temperature as described above to achieve transformation/binding events then put on ice. The entire A sample was loaded onto the Size Exclusion Column and chromatography developed at a flow rate of 0.5 ml/min. Eluant fractions were collected at 2 min intervals (1 mL/fraction). The protocol was repeated for samples B,C,D.
# The fluorimeter readings went offscale and usable readings for the fluorescent DRE were not possible. 200 uL subaliquots of fractions 3-10 were submitted to Sodium Dodecyl Sulfate--PolyAcrylamide Gel Electrophoresis (SDS-PAGE) followed by western blotting. Blots of fractions from samples A and B were probed with anti-ARNT (1:200) and anti-rabbit/alkaline phosphatase (1: 1000) and developed with BCIP/NBT. […]
# [2] = target: transformed Ah receptor/ARNT complex (Cavia porcellus, UniProt Q6J287); assay: mini-Ah immunoassay with anti-ARNT detection of transformed Ah receptor/ARNT complex; type: biochemical, guinea pig (male Hartley, hepatic cytosol); parameters: AHR/ARNT heterodimer on DRE gel, anti-ARNT detection; in some samples recombinant baculovirus ARNT (Bradfield) added; conditions: for density, average / density: TCDD (+); for density: single replicate
# Description: Male Hartley guinea pigs weighing 300-350 g were obtained from Cornell Research Animal Resources, Cornell University, Ithaca, N.Y. Guinea pigs were anaesthetized and killed with carbon dioxide. Livers were perfused in situ with 100 mL ice-cold perfusion buffer, excised, trimmed of connective tissue, poorly perfused liver and gall bladder and weighed. The liver was minced and five mL of ice-cold HEDG per gram liver were added and the whole homogenized in a 50 mL homogenizer with teflon pestle using at 200 rpm for a total of seven strokes. Crude homogenate was centrifuged at 12,500 RPM in 50 mL tubes in a JA17 rotor in a Beckman J2-MI preparative centifuge at 4 degrees C for 20 minutes.
# For a typical mini-Ah immunoassay utilizing 12 samples, 5 mL of Transformed Ah Receptor Affinity Gel slurry described above was pipeted into a 50 mL conical tube. The slurry was washed with 40 mL HEDG and centifuged at 1000 g for 5 min, the supernatant withdrawn and discarded, the pellet washed with 40 mL HEDG, and centrifuged again. After the second centrifugation all but 5 mL of supernatant was withdrawn and the gel thus resuspended in the original volume. 10 mL guinea pig hepatic cytosol was thawed. The thawed cytosol was pooled and then divided into two 5 mL groups and treated with either 5 uL DMSO or 5 uL 10 uM TCDD in DMSO.
# Assembly of transformation mixture:In the preferred embodiment of the mini-Ah immunoassay, each sample was composed of one 1.5 mL microfuge tube with the following sequential additions: 90 uL 4 M NaCl/HEDG, 400 uL Transformed Ah Receptor Affinity Gel slurry and 800 uL cytosol (treated with DMSO or TCDD as described above). The three components described above are the minimum components added at that step of the mini-Ah immunoassay. Any additional materials, such as ARNT, anti-ARNT and anti-Rabbit/alkaline phosphatase conjugate, were sometimes also added at this time as described in the specific examples. After assembly of the samples, the tubes were capped and the samples incubated at room temperature for 2 hours with gentle rocking to allow transformation of the Ah receptor to take place, interaction of transformed Ah receptor and ARNT, and binding of the transformed Ah receptor as a heteromer to the DRE oligonucleotide contained on the Transformed Ah Receptor Affinity Gel.
# Immunoprobing of transformed Ah receptor: The nitrocellulose membrane was then removed from the ELIFA apparatus, rinsed briefly with water, and placed in 20 mL blocker containing test antibody. All antibodies were incubated with the nitrocellulose membrane for one hour at room temperature. When the test antibody was anti-Ah receptor/alkaine phosphatase conjugate, 100 uL anti-Ah receptor/alkaline phosphatase conjugate (1:200), per 20 mL blocker was used. When anti-ARNT was added to the transformation mixture, anti-Rabbit/alkaline phosphatase conjugate (Sigma, St. Louis, Mo.) diluted 1:1000 (20 uL to 20 mL blocker) was used to probe the membrane. When ARNT, anti-ARNT and anti-Rabbit or anti-ARNT and anti-Rabbit was added to the transformation mixture, the Immunoprobing step was eliminated.
# Immunodetection and densitometry: In all cases the nitrocellulose membrane was rinsed prior to immunodetection 3 times for 5 min each with 100 mL TBST, briefly washed in AP development buffer and developed in freshly made BCIP/NBT developer for 5 min, whereupon the color reaction was stopped by washing the membrane in water.
# Quantitative data were obtained by scanning the dried membrane in a Microtek 600ZS scanner in gray scale, 300 dpi, 0% brightness, 0% contrast. Densitometric measurements of the dot-blots were made using ScanAnalysis software (Biosoft, Cambridge U.K.).
# Cytosol and DRE affinity gel are prepared as described above. Cytosol is dosed with 1:1000 v/v DMSO (-) or 1:1000 v/v 10 uM 2,3,7,8-tetrachlorodibenzo-p-dioxin in DMSO (+).
# Immunoprobing of transformed Ah receptor is as described above with the following probes. […]
# [3] = Example 3, 220 ng anti-ARNT spike
# [4] = Example 3, 660 ng anti-ARNT spike
# [5] = Example 4, ARNT/anti-ARNT/anti-rabbit
# [6] = Example 4, anti-ARNT/anti-rabbit, no ARNT added
# [7] = Example 4, codes 1-4 (ARNT 2 ug, anti-ARNT 2 uL)
# Sequence of transformed Ah receptor/ARNT complex (Q6J287 10-846): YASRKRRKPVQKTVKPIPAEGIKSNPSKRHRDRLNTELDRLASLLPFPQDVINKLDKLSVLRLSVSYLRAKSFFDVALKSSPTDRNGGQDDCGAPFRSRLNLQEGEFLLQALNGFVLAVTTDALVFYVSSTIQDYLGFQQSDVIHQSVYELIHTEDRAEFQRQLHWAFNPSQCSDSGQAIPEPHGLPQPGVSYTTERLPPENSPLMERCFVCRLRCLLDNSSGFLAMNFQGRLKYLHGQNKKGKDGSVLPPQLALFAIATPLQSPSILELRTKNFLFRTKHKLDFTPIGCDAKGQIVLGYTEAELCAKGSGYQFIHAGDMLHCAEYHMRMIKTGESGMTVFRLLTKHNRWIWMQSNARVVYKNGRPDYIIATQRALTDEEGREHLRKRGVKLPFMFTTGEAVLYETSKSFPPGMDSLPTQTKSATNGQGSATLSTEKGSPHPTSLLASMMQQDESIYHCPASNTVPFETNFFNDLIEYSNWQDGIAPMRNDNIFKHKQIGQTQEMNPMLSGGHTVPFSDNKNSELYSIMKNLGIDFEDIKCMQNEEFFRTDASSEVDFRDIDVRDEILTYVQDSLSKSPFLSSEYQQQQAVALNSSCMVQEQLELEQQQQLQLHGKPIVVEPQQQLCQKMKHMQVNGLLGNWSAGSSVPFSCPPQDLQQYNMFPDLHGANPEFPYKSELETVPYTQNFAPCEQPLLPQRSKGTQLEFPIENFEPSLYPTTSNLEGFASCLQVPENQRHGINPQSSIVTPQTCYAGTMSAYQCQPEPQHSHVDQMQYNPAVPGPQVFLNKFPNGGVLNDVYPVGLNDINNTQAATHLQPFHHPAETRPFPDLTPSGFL
# Sequence of transformed Ah receptor/ARNT complex (Q0WXX3 1-790 partner): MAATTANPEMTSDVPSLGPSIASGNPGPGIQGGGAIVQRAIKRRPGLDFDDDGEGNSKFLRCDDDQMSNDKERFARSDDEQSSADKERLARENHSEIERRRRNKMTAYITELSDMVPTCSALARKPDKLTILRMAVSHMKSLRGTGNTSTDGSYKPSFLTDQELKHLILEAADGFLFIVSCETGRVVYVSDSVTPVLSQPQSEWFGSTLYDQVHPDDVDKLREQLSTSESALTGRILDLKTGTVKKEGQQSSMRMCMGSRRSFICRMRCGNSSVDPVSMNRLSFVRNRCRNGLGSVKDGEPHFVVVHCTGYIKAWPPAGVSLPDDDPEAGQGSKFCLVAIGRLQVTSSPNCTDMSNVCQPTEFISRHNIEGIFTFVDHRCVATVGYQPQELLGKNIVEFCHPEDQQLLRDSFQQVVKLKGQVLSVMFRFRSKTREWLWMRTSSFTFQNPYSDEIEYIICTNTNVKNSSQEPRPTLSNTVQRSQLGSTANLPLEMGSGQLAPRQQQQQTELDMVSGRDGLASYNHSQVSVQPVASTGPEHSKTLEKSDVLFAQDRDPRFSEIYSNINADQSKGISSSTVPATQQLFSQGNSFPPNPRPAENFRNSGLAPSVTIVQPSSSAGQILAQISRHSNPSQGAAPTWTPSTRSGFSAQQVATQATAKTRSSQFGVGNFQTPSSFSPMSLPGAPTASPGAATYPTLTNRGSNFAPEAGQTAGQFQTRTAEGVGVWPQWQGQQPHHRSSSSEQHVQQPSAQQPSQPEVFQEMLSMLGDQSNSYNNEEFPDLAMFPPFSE
# Sequence of transformed Ah receptor/ARNT complex (P27540 whole entry partner, the tested form may be a part): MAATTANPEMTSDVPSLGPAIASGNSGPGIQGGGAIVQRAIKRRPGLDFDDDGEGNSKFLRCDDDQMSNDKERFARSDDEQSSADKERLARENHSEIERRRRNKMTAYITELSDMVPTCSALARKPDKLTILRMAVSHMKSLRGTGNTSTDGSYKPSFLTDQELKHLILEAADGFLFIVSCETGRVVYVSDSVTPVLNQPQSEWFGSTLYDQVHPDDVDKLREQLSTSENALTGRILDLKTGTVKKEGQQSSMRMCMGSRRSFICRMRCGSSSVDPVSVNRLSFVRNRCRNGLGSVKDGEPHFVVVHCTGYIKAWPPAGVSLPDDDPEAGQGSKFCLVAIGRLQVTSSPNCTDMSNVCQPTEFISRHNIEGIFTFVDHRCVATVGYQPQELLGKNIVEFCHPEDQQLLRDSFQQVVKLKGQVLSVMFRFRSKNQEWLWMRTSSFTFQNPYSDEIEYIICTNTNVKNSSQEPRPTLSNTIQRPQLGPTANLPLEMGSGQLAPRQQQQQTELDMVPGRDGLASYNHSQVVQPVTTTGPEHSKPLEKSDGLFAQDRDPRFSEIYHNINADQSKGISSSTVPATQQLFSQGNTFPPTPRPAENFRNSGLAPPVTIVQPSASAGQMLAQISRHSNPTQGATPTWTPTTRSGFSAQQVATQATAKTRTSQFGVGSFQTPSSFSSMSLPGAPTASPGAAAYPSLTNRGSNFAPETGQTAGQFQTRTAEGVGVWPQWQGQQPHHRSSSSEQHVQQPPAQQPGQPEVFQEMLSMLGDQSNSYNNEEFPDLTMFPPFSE
smiles,measurement,setting,value
"Clc1cc2c(cc1Cl)Oc1cc(Cl)c(Cl)cc1O2 [TCDD, 2,3,7,8-tetrachlorodibenzo-p-dioxin]",ARNT band in size exclusion fraction 3,"[1]; sample B (TCDD) vs sample A (DMSO), anti-ARNT blot",showed a band at the size of ARNT (circa 97 kD) that was absent in fraction 3 of sample A
same,rabbit IgG light chain (anti-ARNT) band in size exclusion fraction 5,"[1]; sample D (TCDD) vs sample C (DMSO), anti-rabbit blot",showed a band at the size of rabbit IgG light chain (circa 25 kD) that was absent in fraction 5 of sample C
same,"density, difference TCDD treated (+) minus DMSO treated (-)",[2]; [3],185901
same,"density, average","[2]; Example 3, 220 ng anti-ARNT spike, average of two replicates",205498
same,density,[2]; [3],191233 and 219762
same,"density, difference TCDD treated (+) minus DMSO treated (-)",[2]; [4],189840
same,"density, average","[2]; Example 3, 660 ng anti-ARNT spike, average of two replicates",261285
same,density,[2]; [4],231412 and 291157
same,"density, difference",[2]; [5],76074
same,density,"[2]; Example 4, ARNT/anti-ARNT/anti-rabbit in mixture",85215 and 80175
same,"density, average",[2]; [5],82695
same,"density, difference",[2]; [6],33501
same,density,[2]; [6],36309
same,"density, average","[2]; Example 4, anti-ARNT/anti-rabbit, no ARNT added, second replicate lost",36309
same,"density, difference",[2]; [7],235535
same,"density, average",[2]; [7],244132
same,density,"[2]; Example 4, codes 1-4 (ARNT 2 ug, anti-ARNT 2 uL; printed Normal)",233321 and 254942
